{"source": "patent US5756355A", "about": "“Lipid membrane sensors” (Ecole Polytechnique Federale de Lausanne, priority 1992, dated 1998)", "key": {"[1]": {"test": "Current responses of the lipid bilayer without receptor (pure lipid layer)", "conditions": "for Icap current response / Ifarad current response: pure lipid layer without receptor; for alterations of the electrical properties of the lipid layer without receptor: same concentration range as with receptor", "method": "For comparison, a corresponding lipid bilayer without the receptor protein was formed by completing the imperfect thiolipid monolayer on the gold electrode with the corresponding pure phospholipid/detergent solution.\nThe same experiment was performed using a lipid layer without receptor.\nThe same experiment was performed using the lipid bilayer without receptor.\nA large (geometrical area about 1 cm^2) AgCl-coated Ag wire served as the counter/reference electrode and was fixed at a defined distance from the working electrode. […] The real and imaginary parts of the impedance were obtained from the currents in phase (faradaic component Ifarad) and 90° out of phase (capacitive component Icap) with the applied voltage, respectively. These currents were measured on a 1 k.OMEGA. resistor in series with the electrodes.\n(§1) The impedance and capacitance of the membrane layers on the gold electrodes were determined from the two current components, Ifarad and Icap, using a simplified model for the electrical behaviour of the membrane with the membrane resistance R=Uo /Ifarad in parallel to the membrane capacitance C=Icap /(2πvUo)."}, "5-HT3 receptor": {"target": "T1, 5-HT3 receptor (Bos taurus, UniProt F1N4Y2)", "T1 construct": "from tissue; host or cells: calf brain, entorhinal cortex and hippocampus; detergent (OPG) solubilised and purified on 5-HT-agarose", "T1 sequence (F1N4Y2 29-488)": "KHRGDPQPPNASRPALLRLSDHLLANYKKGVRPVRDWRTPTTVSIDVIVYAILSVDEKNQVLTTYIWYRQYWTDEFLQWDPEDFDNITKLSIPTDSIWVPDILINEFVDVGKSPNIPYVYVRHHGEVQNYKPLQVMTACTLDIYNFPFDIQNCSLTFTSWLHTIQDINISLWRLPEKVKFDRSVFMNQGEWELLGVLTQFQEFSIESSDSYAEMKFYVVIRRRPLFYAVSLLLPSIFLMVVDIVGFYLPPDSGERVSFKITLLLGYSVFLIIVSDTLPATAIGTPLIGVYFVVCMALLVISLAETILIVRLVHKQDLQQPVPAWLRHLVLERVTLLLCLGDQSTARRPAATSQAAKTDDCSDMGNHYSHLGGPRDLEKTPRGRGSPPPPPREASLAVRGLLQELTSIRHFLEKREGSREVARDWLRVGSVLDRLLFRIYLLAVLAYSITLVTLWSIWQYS", "test": "Current responses of gold-supported lipid bilayer sensor with incorporated 5-HT3 receptor during stimulation by agonists, without or with antagonist", "format": "biochemical, calf", "method": "A 1 mm^2 gold electrode was cleaned and inserted into the electrochemical cell as described in Example 5. First, 100 μl of the thiolipid/OPG solution (0.7 mM/48 mM in 0.1 M KCl) was added and the adsorption process followed as described in Example 6. After approximately 2 minutes, the solution was completely replaced. The sample was washed several times with 55 mM OGP in 0.1 M KCl.\nA receptor-containing solution was prepared as follows: 2 mg (2.9 μmol) of DMPC, 2 mg (2.6 μmol) of POPC (i.e. an approximately 1:1 molar ratio of DMPC: POPC) and 2 mg ([…]) of OPG were ultrasonicated in 1 ml of 0.1 M KCl, until the solution became clear. This solution was mixed with 15 μg of the 5-HT3 receptor (1 mg/ml, in 40 mM OPG and complex buffer \"A\" as used in Example 4), 100 μl of the receptor-containing solution was placed in the cell. After about 2 minutes, the cell solution was diluted stepwise by the addition of small portions of 0.1 M KCl. Finally, the solution was completely replaced by 0.1 M KCl. The resulting layer was used for experiments within 5 hours at most, then being removed by washing with 55 mM OGP in 0.1 M KCl and formed again using the ice-cooled receptor solution.\n50 μl portions of 5-HT solution \"B\" (20 μM 5-HT in 0.1 M KCl) were added successively to the layer with the incorporated receptor (still connected to the cell containing 500 μl of 0.1 M KCl). An interval of about 50 seconds was left between additions (the capacitive and the faradaic current reaching a constant value).\nThe construction of the receptor-containing system was performed as described above. Again, 500 μl of 0.1 M KCl was placed in the measurement cell but for stimulation, a solution \"C\" of 20 μM 1-phenylbiguanide, another agonist, in 0.1 M KCl was used.\nThe supported lipid bilayer, containing the 5-HT3 receptor, was formed as described in (ii). […] After each addition, the values of the capacitive and the faradaic currents were allowed to stabilize.\nA large (geometrical area about 1 cm^2) AgCl-coated Ag wire served as the counter/reference electrode and was fixed at a defined distance from the working electrode. The impedance measurements were made using a two-channel lock-in amplifier (EG&G model 5206) at v=120 Hz, applying Uo =17.5 mV RMS to the electrochemical cell. The real and imaginary parts of the impedance were obtained from the currents in phase (faradaic component Ifarad) and 90° out of phase (capacitive component Icap) with the applied voltage, respectively. These currents were measured on a 1 k.OMEGA. resistor in series with the electrodes.\nas §1"}, "[2]": {"conditions": "phenylbiguanide 1.82 μM, Experiment 1"}, "[3]": {"conditions": "phenylbiguanide 1.82 μM, Experiment 2"}, "[4]": {"conditions": "phenylbiguanide 3.33 μM, Experiment 1"}, "[5]": {"conditions": "phenylbiguanide 3.33 μM, Experiment 2"}, "[6]": {"conditions": "phenylbiguanide 4.62 μM, Experiment 1"}, "[7]": {"conditions": "phenylbiguanide 4.62 μM, Experiment 2"}, "[8]": {"conditions": "phenylbiguanide 5.71 μM, Experiment 1"}, "[9]": {"conditions": "phenylbiguanide 5.71 μM, Experiment 2"}, "[10]": {"conditions": "phenylbiguanide 6.67 μM, Experiment 1"}, "[11]": {"conditions": "phenylbiguanide 6.67 μM, Experiment 2"}, "[12]": {"conditions": "phenylbiguanide 7.50 μM, Experiment 1"}, "[13]": {"conditions": "phenylbiguanide 7.50 μM, Experiment 2"}, "[14]": {"conditions": "phenylbiguanide 8.89 μM, Experiment 1"}, "[15]": {"conditions": "phenylbiguanide 8.89 μM, Experiment 2"}, "[16]": {"conditions": "phenylbiguanide 11.67 μM, Experiment 1"}, "[17]": {"conditions": "phenylbiguanide 11.67 μM, Experiment 2"}, "[18]": {"conditions": "phenylbiguanide 12.86 μM, Experiment 1"}, "[19]": {"conditions": "phenylbiguanide 12.86 μM, Experiment 2"}, "[20]": {"conditions": "phenylbiguanide 14.74 μM, Experiment 1"}, "[21]": {"conditions": "phenylbiguanide 14.74 μM, Experiment 2"}, "[22]": {"conditions": "phenylbiguanide 10. μM, Experiment 1"}, "[23]": {"conditions": "phenylbiguanide 10. μM, Experiment 2"}}, "data": [{"smiles": "N=C(N)NC(=N)Nc1ccccc1", "note": "[1-phenylbiguanide]", "values": [{"measurement": "Icap current response", "setting": "[1]; 1-phenylbiguanide 7.5 μM", "value": 96.5, "unit": "nA"}, {"measurement": "Ifarad current response", "setting": "[1]; 1-phenylbiguanide 7.5 μM", "value": 20.9, "unit": "nA"}, {"measurement": "Icap current response", "setting": "[1]; 1-phenylbiguanide 14.74 μM", "value": 96.4, "unit": "nA"}, {"measurement": "Ifarad current response", "setting": "[1]; 1-phenylbiguanide 14.74 μM", "value": 20.7, "unit": "nA"}, {"measurement": "Icap current response", "setting": "5-HT3 receptor; [2]", "value": 96.3, "unit": "nA"}, {"measurement": "Ifarad current response", "setting": "5-HT3 receptor; [2]", "value": 23.6, "unit": "nA"}, {"measurement": "Icap current response", "setting": "5-HT3 receptor; [3]", "value": 97.3, "unit": "nA"}, {"measurement": "Ifarad current response", "setting": "5-HT3 receptor; [3]", "value": 22.7, "unit": "nA"}, {"measurement": "Icap current response", "setting": "5-HT3 receptor; [4]", "value": 97.1, "unit": "nA"}, {"measurement": "Ifarad current response", "setting": "5-HT3 receptor; [4]", "value": 26.1, "unit": "nA"}, {"measurement": "Icap current response", "setting": "5-HT3 receptor; [5]", "value": 98.0, "unit": "nA"}, {"measurement": "Ifarad current response", "setting": "5-HT3 receptor; [5]", "value": 25.0, "unit": "nA"}, {"measurement": "Icap current response", "setting": "5-HT3 receptor; [6]", "value": 97.6, "unit": "nA"}, {"measurement": "Ifarad current response", "setting": "5-HT3 receptor; [6]", "value": 27.7, "unit": "nA"}, {"measurement": "Icap current response", "setting": "5-HT3 receptor; [7]", "value": 98.5, "unit": "nA"}, {"measurement": "Ifarad current response", "setting": "5-HT3 receptor; [7]", "value": 26.6, "unit": "nA"}, {"measurement": "Icap current response", "setting": "5-HT3 receptor; [8]", "value": 98, "unit": "nA"}, {"measurement": "Ifarad current response", "setting": "5-HT3 receptor; [8]", "value": 28.9, "unit": "nA"}, {"measurement": "Icap current response", "setting": "5-HT3 receptor; [9]", "value": 99.2, "unit": "nA"}, {"measurement": "Ifarad current response", "setting": "5-HT3 receptor; [9]", "value": 28.3, "unit": "nA"}, {"measurement": "Icap current response", "setting": "5-HT3 receptor; [10]", "value": 98.3, "unit": "nA"}, {"measurement": "Ifarad current response", "setting": "5-HT3 receptor; [10]", "value": 29.7, "unit": "nA"}, {"measurement": "Icap current response", "setting": "5-HT3 receptor; [11]", "value": 99.4, "unit": "nA"}, {"measurement": "Ifarad current response", "setting": "5-HT3 receptor; [11]", "value": 29.0, "unit": "nA"}, {"measurement": "Icap current response", "setting": "5-HT3 receptor; [12]", "value": 98.4, "unit": "nA"}, {"measurement": "Ifarad current response", "setting": "5-HT3 receptor; [12]", "value": 30.1, "unit": "nA"}, {"measurement": "Icap current response", "setting": "5-HT3 receptor; [13]", "value": 99.5, "unit": "nA"}, {"measurement": "Ifarad current response", "setting": "5-HT3 receptor; [13]", "value": 29.5, "unit": "nA"}, {"measurement": "Icap current response", "setting": "5-HT3 receptor; [14]", "value": 98.5, "unit": "nA"}, {"measurement": "Ifarad current response", "setting": "5-HT3 receptor; [14]", "value": 30.6, "unit": "nA"}, {"measurement": "Icap current response", "setting": "5-HT3 receptor; [15]", "value": 99.6, "unit": "nA"}, {"measurement": "Ifarad current response", "setting": "5-HT3 receptor; [15]", "value": 29.8, "unit": "nA"}, {"measurement": "Icap current response", "setting": "5-HT3 receptor; [16]", "value": 98.6, "unit": "nA"}, {"measurement": "Ifarad current response", "setting": "5-HT3 receptor; [16]", "value": 31.1, "unit": "nA"}, {"measurement": "Icap current response", "setting": "5-HT3 receptor; [17]", "value": 99.6, "unit": "nA"}, {"measurement": "Ifarad current response", "setting": "5-HT3 receptor; [17]", "value": 30.3, "unit": "nA"}, {"measurement": "Icap current response", "setting": "5-HT3 receptor; [18]", "value": 98.6, "unit": "nA"}, {"measurement": "Ifarad current response", "setting": "5-HT3 receptor; [18]", "value": 31.2, "unit": "nA"}, {"measurement": "Icap current response", "setting": "5-HT3 receptor; [19]", "value": 99.6, "unit": "nA"}, {"measurement": "Ifarad current response", "setting": "5-HT3 receptor; [19]", "value": 30.4, "unit": "nA"}, {"measurement": "Icap current response", "setting": "5-HT3 receptor; [20]", "value": 98.6, "unit": "nA"}, {"measurement": "Ifarad current response", "setting": "5-HT3 receptor; [20]", "value": 31.2, "unit": "nA"}, {"measurement": "Icap current response", "setting": "5-HT3 receptor; [21]", "value": 99.6, "unit": "nA"}, {"measurement": "Ifarad current response", "setting": "5-HT3 receptor; [21]", "value": 30.4, "unit": "nA"}, {"measurement": "Icap current response", "setting": "5-HT3 receptor; [22]", "value": 98.6, "unit": "nA"}, {"measurement": "Ifarad current response", "setting": "5-HT3 receptor; [22]", "value": 30.8, "unit": "nA"}, {"measurement": "Icap current response", "setting": "5-HT3 receptor; [23]", "value": 99.6, "unit": "nA"}, {"measurement": "Ifarad current response", "setting": "5-HT3 receptor; [23]", "value": 30.0, "unit": "nA"}]}, {"smiles": "NCCc1c[nH]c2ccc(O)cc12", "note": "[5-hydroxytryptamine]", "values": [{"measurement": "alterations of the electrical properties of the lipid layer without receptor", "setting": "[1]", "value": "no alterations of the electrical properties of the pure lipid layer were observed"}]}, {"smiles": "CN1C2CCC1CC(OC(=O)c1c[nH]c3ccccc13)C2", "note": "(stereo not drawn) [ICS 205-930]", "values": [{"measurement": "alterations of the electrical properties of the lipid layer without receptor", "setting": "[1]", "value": "No alterations of the electrical properties of the lipid bilayer"}, {"measurement": "5-HT concentration necessary for binding to the receptor, times higher than in the absence of the antagonist", "setting": "5-HT3 receptor; in the presence of 10 nM ICS 205-930", "value": "about 40 times"}]}]}
